Measured values published in patent US20130261136A1, “COFFEE EXTRACTS AS INGREDIENTS OF FOODS, DRUGS, COSMETICS, DIETARY SUPPLEMENTS, AND BIOLOGICS” (priority 2010, published 2013).

What was measured:
[1] = ORAC assay adapted for the linoleate microemulsion system (relative ORAC, synergy)
Procedure: Synergistic effects of bioactive compounds combined with alpha-tocopherol. […] An OBS microplate was prepared with duplicate wells of Trolox solution standards (20 μL; 500, 250, 125, 62.5, or 31.25 μM) and triplicate wells of samples diluted in phosphate buffer (20 μL). The perimeter wells were not used for kinetic studies to avoid potential edge effects. The oxidation substrate, methyl linoleate microemulsion (200 μL), was then added. […] A control well containing 200 μL of microemulsion and 40 μL of phosphate buffer was used to normalize the fluorescence reading. The reaction kinetics were monitored at 37° C. for 2 h, with readings every 2 min, by a Synergy HT microplate fluorescent reader (Biotek Instruments Inc.). The microplate reader was fitted with an excitation filter at 485 nm, an emission filter of 590 nm, and an oxygen sensor biosystem, and the plate was shaken for 20 s at low intensity before each reading to ensure sufficient mixing. After normalization, the fluorescence data were converted to the oxygen concentration at each point of the reaction. The ORAC values of samples were determined as previously described ([…]. et al., Journal of Agricultural and Food Chemistry 2009, 57, 3409-3414).

[2] = test system: human skeletal muscle cells; experiment: Glucose uptake (3H-2-deoxyglucose) in skeletal muscle cells; type: cell-based; settings: 100 nM insulin (positive control)
Procedure: (§1) Glucose uptake. […] Briefly, primary human subcutaneous adipocytes or primary human myoblasts were differentiated in 96-well microplates. […] All samples, including the positive and negative controls, were tested in triplicate. After a 2-h incubation at 37° C. and 5% CO2, the cells were washed with PBS and lysed. The cell lysate was mixed with scintillation fluid and radioactivity of each well was measured as counts per minute (CPM).

[3] = test system: human adipocytes; experiment: Glucose uptake (3H-2-deoxyglucose) in adipocytes; type: cell-based; settings: 100 nM insulin (positive control)
Procedure: as §1

Row | Compound | Antioxidant effect in combination with α-tocopherol [1] | Increase in glucose uptake [2] [fold] | Increase in glucose uptake [3] [fold]
1 | O=C1O[C@H]([C@@H](O)CO)C(O)=C1O [ascorbic acid] | additive |  | 
2 | Oc1cc(O)c2c(c1)O[C@H](c1ccc(O)c(O)c1)[C@@H](O)C2 [catechin, Catechin] | synergistic |  | 
3 | insulin |  | 2.06 | 1.6
4 | O=C(/C=C/c1ccc(O)c(O)c1)O[C@@H]1C[C@](O)(C(=O)O)C[C@@H](O)[C@H]1O [chlorogenic acid] | synergistic |  | 
